In PMC9820531, “Porcine Relaxin but Not Serelaxin Shows Residual Bioactivity after In Vitro Simulated Intestinal Digestion—Clues for the Development of New Relaxin Peptide Agonists Suitable for Oral Delivery” (International Journal of Molecular Sciences, 2022):

What was measured:
[1] = tested on: acute heart failure patients; parameters: method as in PMID 31433919, PMID 31886953; conditions: IV infusion 30 μg/kg/day; cited from earlier work
[2] = parameters: method as in PMID 8257492; conditions: in vivo; cited from earlier work
RXFP1 relaxin receptor [3] = biological target: T1, RXFP1 relaxin receptor (Homo sapiens, UniProt Q9HBX9); test: cAMP response by THP-1 cells to intact relaxins; type: cell-based; conditions: intact peptide 100 ng/mL, 15 min stimulation, IBMX 100 μM, forskolin 10^−4 M as maximum, chemiluminescent HitHunterXP cAMP II assay, triplicate points, two independent experiments
T1 construct: a marked, significant rise of cAMP in RXFP-1-expressing THP-1 cells; endogenous in cells; host or cells: THP-1 human monocytic cells (ECACC)
T1 sequence (Q9HBX9 1-757): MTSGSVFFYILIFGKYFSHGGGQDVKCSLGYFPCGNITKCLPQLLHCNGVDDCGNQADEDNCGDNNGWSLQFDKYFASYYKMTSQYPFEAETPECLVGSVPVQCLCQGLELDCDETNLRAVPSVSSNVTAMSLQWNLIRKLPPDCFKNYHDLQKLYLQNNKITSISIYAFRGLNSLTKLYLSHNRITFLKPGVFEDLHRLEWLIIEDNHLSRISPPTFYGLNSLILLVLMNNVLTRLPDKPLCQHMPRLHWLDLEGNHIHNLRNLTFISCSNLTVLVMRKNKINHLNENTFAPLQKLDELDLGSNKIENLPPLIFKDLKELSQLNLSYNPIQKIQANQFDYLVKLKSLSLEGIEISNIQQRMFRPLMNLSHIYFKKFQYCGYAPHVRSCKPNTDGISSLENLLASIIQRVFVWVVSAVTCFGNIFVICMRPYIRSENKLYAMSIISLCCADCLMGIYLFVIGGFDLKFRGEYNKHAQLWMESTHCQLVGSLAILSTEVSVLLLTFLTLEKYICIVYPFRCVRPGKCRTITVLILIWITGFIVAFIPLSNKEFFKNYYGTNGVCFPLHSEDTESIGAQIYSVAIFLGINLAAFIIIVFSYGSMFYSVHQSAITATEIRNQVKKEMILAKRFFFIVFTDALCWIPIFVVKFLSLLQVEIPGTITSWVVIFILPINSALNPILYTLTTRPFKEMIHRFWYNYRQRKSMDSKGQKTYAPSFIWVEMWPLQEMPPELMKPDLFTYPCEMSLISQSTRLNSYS
Experimental: Human monocytic THP-1 cells (European Collection of Cell Cultures ECACC, Salisbury, UK) were cultured in suspension in RPMI medium containing 10% fetal calf serum, 250 U/mL penicillin G and 250 μg/mL streptomycin in a 5% CO2 atmosphere at 37 °C. Aliquots containing 6 × 10^5 THP-1 cells in 1 mL PBS were placed in a 24-well plate, added with IBMX (100 μM) to prevent cAMP catabolism, and then incubated with intact serelaxin (100 ng/mL), pRLX (100 ng/mL) or equivalent solutions of their digestion by-products. According to previous studies, cAMP assay was carried out 15 min after addition of the stimuli, i.e., in the midst of the second, sustained cAMP surge upon RXFP1 stimulation. Measurements of cAMP were determined by the chemiluminescent HitHunterXP™ cAMP II assay (DiscoverX, Birmingham, UK). The standard curve was performed in duplicate, and the experimental points in triplicate. Since the standard curve was sigmoidal, nonlinear regression was used to extrapolate unknown experimental cAMP values, expressed as nmol/L, according to the manufacturer’s instructions. Two independent experiments were performed. For positive control, the adenylate cyclase activator forskolin (10^−4 M) was used. Finally, the values of cAMP in each experimental sample were normalized by the amount of proteins, measured by the micro-BCATM Protein Assay Kit (Pierce, IL, USA) method, and expressed as mg/mL.

RXFP-1 receptor = conditions: serelaxin versus pRLX, similar cellular models; cited from earlier work
RXFP1 relaxin receptor [4] = biological target: T1, RXFP1 relaxin receptor; test: cAMP response by THP-1 cells to SIF digestion products; type: cell-based; conditions: SIF: pancreatin 500 μg/mL, CaCl2, pH 7, 37 °C, peptide 1.12 μM; digestion products tested at equivalent of 100 ng/mL on THP-1 cells, 15 min; read-out cAMP
Experimental: The effects of duodenal enzyme digestion on the noted serelaxin and pRLX preparations was carried out by addition of a simulated intestinal fluid (SIF), composed of a solution of pancreatin (500 μg/mL), CaCl2 0.75 M (0.1 v/v), pH adjusted to 7 adding dropwise an aqueous solution of NaOH 0.1 M to pRLX and serelaxin solutions. In particular: 0.5 mg/mL aqueous solution of pRLX (MW 5918, 0.084 mM) was added to SIF in a 50 mL Falcon, mixing in a 37 °C bath, to a final pRLX concentration 1.12 μM; 0.2 mL of this solution were sampled and quenched by pH adjusting (0.1 M HCl), at the following times: t = 0”/10”/20”/30”/60”/120”/600”/1800”. […]
Human monocytic THP-1 cells (European Collection of Cell Cultures ECACC, Salisbury, UK) were cultured in suspension in RPMI medium containing 10% fetal calf serum, 250 U/mL penicillin G and 250 μg/mL streptomycin in a 5% CO2 atmosphere at 37 °C. […] Measurements of cAMP were determined by the chemiluminescent HitHunterXP™ cAMP II assay (DiscoverX, Birmingham, UK). […] Since the standard curve was sigmoidal, nonlinear regression was used to extrapolate unknown experimental cAMP values, expressed as nmol/L, according to the manufacturer’s instructions. […] Finally, the values of cAMP in each experimental sample were normalized by the amount of proteins, measured by the micro-BCATM Protein Assay Kit (Pierce, IL, USA) method, and expressed as mg/mL.

serelaxin
effects on length of hospitalization, occurrence of cardiovascular death, and disease relapses requiring re-hospitalization in comparison with placebo [1]: no substantial effects
half-life [2]: about 2 h
intracellular cAMP increase as % of the maximal cAMP surge induced by forskolin (RXFP1 relaxin receptor [3]): 88.6%
affinity for the RXFP-1 receptor relative to the other relaxin (RXFP-1 receptor): higher affinity
SIF exposure time at which cAMP levels dropped down to levels of unstimulated control cells (RXFP1 relaxin receptor [4]): 120 s
SIF exposure time at which the decrease in cAMP production became fully manifest and statistically significant (RXFP1 relaxin receptor [4]): 60 s
